Source: US11771676B2, “Method for preparing high-load oral paclitaxel capsule for slow release in colon” (Jiangnan University, priority 2022, dated 2023)

Experiment: Determination of stability in upper digestive tract and simulated colonic release (SGF, SIF, SCF; dialysis bag, UV 230 nm)
Type: physicochemical
Details: cumulative release after SGF and SIF
Experimental: 6. Determination of Stability in Upper Digestive Tract and Simulated Colonic Release
A simulated gastric fluid (SGF, a pH of 1.2) consists of 2.95 g/L of sodium chloride and 8 ml/L of hydrochloric acid. A paclitaxel capsule (1 mg/ml of paclitaxel (dry weight)) is added to the SGF containing 3.2 g/L of pepsin and placed in a sealed dialysis bag (8,000-14,000 Da), then the dialysis bag is soaked in the SGF containing 3% (v/w) Tween-20 and stirred at 100 rpm at 37±0.5° C., and 2 ml of a release medium is withdrawn at 30 min, 60 min, 90 min, and 120 min respectively. An equal volume of the fresh SGF is added to maintain a volume after each sampling.
A pH value of the SGF system is adjusted to 6.8 with disodium hydrogen phosphate and a fresh porcine trypsin solution at 30 mg/mL is added into the dialysis bag to obtain a simulated intestinal fluid (SIF). 2 ml of a release medium is taken out at 30 min, 60 min, 90 min, and 120 min respectively and a concentration of paclitaxel is determined. An equal volume of the fresh release medium is added to maintain a volume after each sampling. […]
The concentration of paclitaxel is measured with an ultraviolet spectrophotometer at a wavelength of 230 nm.

In the case of `CC(=O)O[C@H]1C(=O)[C@@]2(C)[C@H]([C@H](OC(=O)c3ccccc3)[C@]3(O)C[C@H](OC(=O)[C@H](O)[C@@H](NC(=O)c4ccccc4)c4ccccc4)C(C)=C1C3(C)C)[C@]1(OC(C)=O)CO[C@@H]1C[C@@H]2O` [raw paclitaxel, paclitaxel], the “release amount (dissolution rate) in a stomach-small intestine” value is reported as “about 25%”.
